Test results taken from US12264156B2, “Compounds and pharmaceutical compositions thereof for the treatment of diseases” (GALAPAGOS NV, priority 2018, dated 2025).

Key:
Type in all cases: biochemical
Conditions in all cases: ADP-Glo SIK kinase assay
[1] = target: T1, SIK2 (Homo sapiens, UniProt Q9H0K1); test: ADP-Glo kinase assay, SIK2
T1 construct: purchased ThermoFisher Scientific PV4792
Summary of the method: (§1)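 Kinase reactions (enzyme-substrate mix plus ATP) ran 120 min at room temperature for each of SIK3 and SIK2. Signal came from ADP-Glo: unconsumed ATP removed (40 min), ADP reconverted and detected by luciferase/luciferin (30 min), with luminescence tracking kinase activity. 10 μM staurosporine and 1% DMSO (final) served as controls.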

[2] = target: T2, SIK1 (Homo sapiens, UniProt P57059); test: ADP-Glo kinase assay, SIK1
T2 construct: purchased Carna Biosciences 02-131
Summary of the method: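 Wells with 1% DMSO or 10 μM staurosporine (final) define the control window. The kinase reaction with substrate and ATP runs 120 min at RT, followed by ADP-Glo detection: ATP depletion (40 min) and ADP-derived luminescence (30 min).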

[3] = target: T3, SIK3 (Homo sapiens, UniProt Q9Y2K2); test: ADP-Glo kinase assay, SIK3
T3 construct: purchased SignalChem S12-11G-100
Summary of the method: as §1

T3 sequence (Q9Y2K2 whole entry): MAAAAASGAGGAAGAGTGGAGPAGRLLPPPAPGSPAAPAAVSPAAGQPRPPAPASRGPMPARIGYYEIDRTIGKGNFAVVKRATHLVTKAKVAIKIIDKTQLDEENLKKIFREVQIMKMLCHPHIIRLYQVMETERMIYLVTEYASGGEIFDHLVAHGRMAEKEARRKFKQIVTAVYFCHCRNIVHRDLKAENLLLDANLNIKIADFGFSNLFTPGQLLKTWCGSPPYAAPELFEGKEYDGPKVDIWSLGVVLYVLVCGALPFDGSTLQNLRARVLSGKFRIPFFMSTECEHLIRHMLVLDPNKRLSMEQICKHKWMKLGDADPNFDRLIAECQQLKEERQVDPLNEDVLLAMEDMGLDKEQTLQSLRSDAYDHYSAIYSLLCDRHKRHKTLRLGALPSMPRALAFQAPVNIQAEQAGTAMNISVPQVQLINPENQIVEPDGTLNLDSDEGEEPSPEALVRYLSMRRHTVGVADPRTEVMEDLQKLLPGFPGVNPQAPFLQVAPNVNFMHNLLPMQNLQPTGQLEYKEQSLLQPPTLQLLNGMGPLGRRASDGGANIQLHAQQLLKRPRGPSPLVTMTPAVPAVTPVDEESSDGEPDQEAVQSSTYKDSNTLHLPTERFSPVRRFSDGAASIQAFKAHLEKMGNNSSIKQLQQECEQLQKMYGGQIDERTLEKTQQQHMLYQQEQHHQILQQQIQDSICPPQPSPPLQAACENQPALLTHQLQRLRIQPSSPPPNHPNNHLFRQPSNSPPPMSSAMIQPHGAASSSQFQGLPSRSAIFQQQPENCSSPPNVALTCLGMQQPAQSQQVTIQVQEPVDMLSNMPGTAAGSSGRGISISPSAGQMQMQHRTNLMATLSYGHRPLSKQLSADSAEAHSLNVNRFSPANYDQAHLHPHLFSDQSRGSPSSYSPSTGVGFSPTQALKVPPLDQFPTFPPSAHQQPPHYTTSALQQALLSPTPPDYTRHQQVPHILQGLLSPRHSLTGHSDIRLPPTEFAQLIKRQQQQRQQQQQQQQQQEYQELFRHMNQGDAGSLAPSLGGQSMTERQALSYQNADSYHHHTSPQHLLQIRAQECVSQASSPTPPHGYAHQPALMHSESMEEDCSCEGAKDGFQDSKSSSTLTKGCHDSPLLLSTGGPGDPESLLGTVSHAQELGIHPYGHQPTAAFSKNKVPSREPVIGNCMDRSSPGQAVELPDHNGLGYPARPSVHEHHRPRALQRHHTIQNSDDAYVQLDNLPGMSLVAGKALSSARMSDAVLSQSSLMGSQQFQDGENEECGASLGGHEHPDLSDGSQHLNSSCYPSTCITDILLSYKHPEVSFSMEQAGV
T2 sequence (P57059 whole entry): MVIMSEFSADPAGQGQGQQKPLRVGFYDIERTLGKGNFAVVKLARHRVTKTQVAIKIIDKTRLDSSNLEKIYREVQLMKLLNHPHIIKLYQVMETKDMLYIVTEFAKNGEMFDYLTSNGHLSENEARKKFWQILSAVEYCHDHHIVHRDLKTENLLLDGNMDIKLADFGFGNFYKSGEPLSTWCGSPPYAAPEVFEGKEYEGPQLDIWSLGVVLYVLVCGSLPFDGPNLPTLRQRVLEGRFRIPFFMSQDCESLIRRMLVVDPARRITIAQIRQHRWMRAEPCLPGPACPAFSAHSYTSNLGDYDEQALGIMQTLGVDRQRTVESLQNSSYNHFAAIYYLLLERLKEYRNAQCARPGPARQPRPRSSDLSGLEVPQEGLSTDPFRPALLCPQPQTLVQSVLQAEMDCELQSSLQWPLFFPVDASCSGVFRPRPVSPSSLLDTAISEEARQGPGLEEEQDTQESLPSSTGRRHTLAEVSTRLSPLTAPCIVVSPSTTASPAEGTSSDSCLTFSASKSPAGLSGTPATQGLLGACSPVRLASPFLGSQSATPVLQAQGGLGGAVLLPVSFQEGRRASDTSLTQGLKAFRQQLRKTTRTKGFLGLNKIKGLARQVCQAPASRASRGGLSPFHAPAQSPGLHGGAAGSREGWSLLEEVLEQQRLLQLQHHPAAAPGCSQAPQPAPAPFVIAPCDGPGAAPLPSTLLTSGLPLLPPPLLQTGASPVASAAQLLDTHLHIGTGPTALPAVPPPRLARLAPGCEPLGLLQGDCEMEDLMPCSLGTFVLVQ
T1 sequence (Q9H0K1 whole entry): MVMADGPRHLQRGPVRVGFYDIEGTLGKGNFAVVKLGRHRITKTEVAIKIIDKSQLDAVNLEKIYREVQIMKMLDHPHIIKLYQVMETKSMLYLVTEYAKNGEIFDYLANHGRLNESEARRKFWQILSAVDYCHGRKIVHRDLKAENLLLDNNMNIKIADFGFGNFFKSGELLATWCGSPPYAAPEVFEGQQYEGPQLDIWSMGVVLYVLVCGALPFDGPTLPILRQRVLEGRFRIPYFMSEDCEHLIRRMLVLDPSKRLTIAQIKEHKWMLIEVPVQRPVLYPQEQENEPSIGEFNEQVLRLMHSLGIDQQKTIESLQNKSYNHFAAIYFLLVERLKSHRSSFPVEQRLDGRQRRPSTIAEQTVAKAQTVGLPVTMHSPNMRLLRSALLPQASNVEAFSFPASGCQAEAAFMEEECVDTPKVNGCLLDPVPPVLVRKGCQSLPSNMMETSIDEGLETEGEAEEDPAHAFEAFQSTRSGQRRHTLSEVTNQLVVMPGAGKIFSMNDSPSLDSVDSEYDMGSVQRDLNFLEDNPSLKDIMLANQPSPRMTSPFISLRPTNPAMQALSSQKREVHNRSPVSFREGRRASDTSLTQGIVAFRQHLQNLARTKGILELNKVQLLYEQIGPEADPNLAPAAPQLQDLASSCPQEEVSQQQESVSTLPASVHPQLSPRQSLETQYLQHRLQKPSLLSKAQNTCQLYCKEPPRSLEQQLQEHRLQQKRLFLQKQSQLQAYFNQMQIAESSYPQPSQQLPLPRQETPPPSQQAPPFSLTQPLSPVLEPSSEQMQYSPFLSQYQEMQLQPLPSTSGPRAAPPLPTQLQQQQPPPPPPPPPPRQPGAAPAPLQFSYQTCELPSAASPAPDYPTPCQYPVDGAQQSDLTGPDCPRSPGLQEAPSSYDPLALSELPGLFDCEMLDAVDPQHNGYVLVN

IC50 [1]	IC50 [2]	IC50 [3]	SMILES
0.01 to 10 nM	10 to 100 nM	0.01 to 10 nM	COc1cc(-c2cnc3cc(OCC4CN(C)CCO4)ccn23)cc(OC(F)F)c1C(=O)NC1CC1 (stereo not drawn) [compound 82, N-cyclopropyl-2-(difluoromethoxy)-6-methoxy-4-[7-[(4-methylmorpholin-2-yl)methoxy]imidazo[1,2-a]pyridin-3-yl]benzamide]
0.01 to 10 nM	> 500 nM	0.01 to 10 nM	COc1cc(-c2cnc3cc(OCc4cncn4C)ccn23)cc2c1C(=O)N(CC(F)(F)F)CC2 [compound 85, 8-methoxy-6-[7-[(3-methylimidazol-4-yl)methoxy]imidazo[1,2-a]pyridin-3-yl]-2-(2,2,2-trifluoroethyl)-3,4-dihydroisoquinolin-1-one]
0.01 to 10 nM	10 to 100 nM	0.01 to 10 nM	COc1cc(-c2cnc3cc(OCC4CCN4C(=O)OC(C)(C)C)ccn23)cc(OC(F)F)c1C(=O)NC1CC1 (stereo not drawn) [compound 87, tert-butyl 2-[[3-[4-(cyclopropylcarbamoyl)-3-(difluoromethoxy)-5-methoxy-phenyl]imidazo[1,2-a]pyridin-7-yl]oxymethyl]azetidine-1-carboxylate]
0.01 to 10 nM	10 to 100 nM	0.01 to 10 nM	COc1cc(-c2cnc3cc(OCC4(C)COC4)ccn23)cc(OC(F)F)c1C(=O)NC1CC1 [compound 89, N-cyclopropyl-2-(difluoromethoxy)-6-methoxy-4-[7-[(3-methyloxetan-3-yl)methoxy]imidazo[1,2-a]pyridin-3-yl]benzamide]
0.01 to 10 nM	10 to 100 nM	0.01 to 10 nM	COc1cc(-c2cnc3cc(OCC(F)F)ccn23)cc(OC(F)F)c1C(=O)NC1CC1 [compound 90, N-cyclopropyl-4-[7-(2,2-difluoroethoxy)imidazo [1,2-a]pyridin-3-yl]-2-(difluoromethoxy)-6-methoxy-benzamide]
0.01 to 10 nM	10 to 100 nM	0.01 to 10 nM	COc1cc(-c2cnc3cc(OCC(F)(F)F)ccn23)cc(OC(F)F)c1C(=O)NC1CC1 [compound 91, N-cyclopropyl-2-(difluoromethoxy)-6-methoxy-4-[7-(2,2,2-trifluoroethoxy)imidazo [1,2-a]pyridin-3-yl]benzamide]
0.01 to 10 nM	10 to 100 nM	0.01 to 10 nM	COc1cc(-c2cnc3cc(OCC4CCOC4)ccn23)cc(OC(F)F)c1C(=O)NC1CC1 (stereo not drawn) [compound 92, N-cyclopropyl-2-(difluoromethoxy)-6-methoxy-4-[7-(tetrahydrofuran-3-ylmethoxy)imidazo[1,2-a]pyridin-3-yl]benzamide]
0.01 to 10 nM	10 to 100 nM	0.01 to 10 nM	COc1cc(-c2cnc3cc(OCC4CCCO4)ccn23)cc(OC(F)F)c1C(=O)NC1CC1 (stereo not drawn) [compound 93, N-cyclopropyl-2-(difluoromethoxy)-6-methoxy-4-[7-(tetrahydrofuran-2-ylmethoxy)imidazo[1,2-a]pyridin-3-yl]benzamide]
10 to 100 nM	10 to 100 nM	10 to 100 nM	COc1cc(-c2cnc3cc(OCc4ncccn4)ccn23)cc(OC(F)F)c1C(=O)NC1CC1 [compound 94, N-cyclopropyl-2-(difluoromethoxy)-6-methoxy-4-[7-(pyrimidin-2-ylmethoxy)imidazo[1,2-a]pyridin-3-yl]benzamide]
0.01 to 10 nM	10 to 100 nM	0.01 to 10 nM	COc1cc(-c2cnc3cc(OCc4cncs4)ccn23)cc(OC(F)F)c1C(=O)NC1CC1 [compound 95, N-cyclopropyl-2-(difluoromethoxy)-6-methoxy-4-[7-(thiazol-5-ylmethoxy)imidazo[1,2-a]pyridin-3-yl]benzamide]
0.01 to 10 nM	10 to 100 nM	0.01 to 10 nM	COc1cc(-c2cnc3cc(OCC4CC4)ccn23)cc(OC(F)F)c1C(=O)NC1CC1 [compound 96, N-cyclopropyl-4-[7-(cyclopropylmethoxy)imidazo[1,2-a]pyridin-3-yl]-2-(difluoromethoxy)-6-methoxy-benzamide]
0.01 to 10 nM	10 to 100 nM	0.01 to 10 nM	COc1cc(-c2cnc3cc(OCC4(C)CC4)ccn23)cc(OC(F)F)c1C(=O)NC1CC1 [compound 97, N-cyclopropyl-2-(difluoromethoxy)-6-methoxy-4-[7-[(1-methylcyclopropyl)methoxy]imidazo[1,2-a]pyridin-3-yl]benzamide]
0.01 to 10 nM	10 to 100 nM	0.01 to 10 nM	COc1cc(-c2cnc3cc(OCC4COCCO4)ccn23)cc(OC(F)F)c1C(=O)NC1CC1 (stereo not drawn) [compound 98, N-cyclopropyl-2-(difluoromethoxy)-4-[7-(1,4-dioxan-2-ylmethoxy)imidazo[1,2-a]pyridin-3-yl]-6-methoxy-benzamide]
0.01 to 10 nM	0.01 to 10 nM	0.01 to 10 nM	COc1cc(-c2cnc3cc(OCC4CCC(=O)N4)ccn23)cc(OC(F)F)c1C(=O)NC1CC1 (stereo not drawn) [compound 99, N-cyclopropyl-2-(difluoromethoxy)-6-methoxy-4-[7-[(5-oxopyrrolidin-2-yl)methoxy]imidazo[1,2-a]pyridin-3-yl]benzamide]
10 to 100 nM	100 to 500 nM	10 to 100 nM	COc1cc(-c2cnc3cc(OCC(=O)N(C)C)ccn23)cc(OC(F)F)c1C(=O)NC1CC1 [compound 100, N-cyclopropyl-2-(difluoromethoxy)-4-[7-[2-(dimethylamino)-2-oxo-ethoxy]imidazo[1,2-a]pyridin-3-yl]-6-methoxy-benzamide]
0.01 to 10 nM	10 to 100 nM	0.01 to 10 nM	COc1cc(-c2cnc3cc(OCC4CNC(=O)C4)ccn23)cc(OC(F)F)c1C(=O)NC1CC1 (stereo not drawn) [compound 102, N-cyclopropyl-2-(difluoromethoxy)-6-methoxy-4-[7-[(5-oxopyrrolidin-3-yl)methoxy]imidazo[1,2-a]pyridin-3-yl]benzamide]
0.01 to 10 nM	10 to 100 nM	0.01 to 10 nM	COc1cc(-c2cnc3cc(OCc4ccncc4)ccn23)cc(OC(F)F)c1C(=O)NC1CC1 [compound 103, N-cyclopropyl-2-(difluoromethoxy)-6-methoxy-4-[7-(4-pyridylmethoxy)imidazo [1,2-a]pyridin-3-yl]benzamide]
0.01 to 10 nM	10 to 100 nM	0.01 to 10 nM	COc1cc(-c2cnc3cc(OCc4ccccn4)ccn23)cc(OC(F)F)c1C(=O)NC1CC1 [compound 105, N-cyclopropyl-2-(difluoromethoxy)-6-methoxy-4-[7-(2-pyridylmethoxy)imidazo [1,2-a]pyridin-3-yl]benzamide]
10 to 100 nM	> 500 nM	10 to 100 nM	COc1cc(-c2cnc3cc(OCC(C)(C)N(C)C)ccn23)cc(OC(F)F)c1C(=O)NC1CC1 [compound 106, N-cyclopropyl-2-(difluoromethoxy)-4-[7-[2-(dimethylamino)-2-methyl-propoxy]imidazo[1,2-a]pyridin-3-yl]-6-methoxy-benzamide]
0.01 to 10 nM	0.01 to 10 nM	0.01 to 10 nM	COc1cc(-c2cnc3cc(OCC4CC(N)C4)ccn23)cc(OC(F)F)c1C(=O)NC1CC1 (stereo not drawn) [compound 108, 4-[7-[(3-aminocyclobutyl)methoxy]imidazo[1,2-a]pyridin-3-yl]-N-cyclopropyl-2-(difluoromethoxy)-6-methoxy-benzamide]
0.01 to 10 nM	10 to 100 nM	0.01 to 10 nM	COc1cc(-c2cnc3cc(OCCN4CCC4)ccn23)cc(OC(F)F)c1C(=O)NC1CC1 [compound 112, 4-[7-[2-(azetidin-1-yl)ethoxy]imidazo[1,2-a]pyridin-3-yl]-N-cyclopropyl-2-(difluoromethoxy)-6-methoxy-benzamide]
0.01 to 10 nM	10 to 100 nM	0.01 to 10 nM	COc1cc(-c2cnc3cc(OCCNCCO)ccn23)cc(OC(F)F)c1C(=O)NC1CC1 [compound 114]
0.01 to 10 nM	10 to 100 nM	0.01 to 10 nM	COc1cc(-c2cnc3cc(OCCCN)ccn23)cc(OC(F)F)c1C(=O)NC1CC1 [compound 115, 4-[7-(3-aminopropoxy)imidazo [1,2-a]pyridin-3-yl]-N-cyclopropyl-2-(difluoromethoxy)-6-methoxy-benzamide]
0.01 to 10 nM	10 to 100 nM	0.01 to 10 nM	COc1cc(-c2cnc3cc(OCC4(CN)CCC4)ccn23)cc(OC(F)F)c1C(=O)NC1CC1 [compound 116, 4-[7-[[1-(aminomethyl)cyclobutyl]methoxy]imidazo[1,2-a]pyridin-3-yl]-N-cyclopropyl-2-(difluoromethoxy)-6-methoxy-benzamide]
0.01 to 10 nM	10 to 100 nM	0.01 to 10 nM	COc1cc(-c2cnc3cc(OCC4CCCCN4)ccn23)cc(OC(F)F)c1C(=O)NC1CC1 (stereo not drawn) [compound 119, N-cyclopropyl-2-(difluoromethoxy)-6-methoxy-4-[7-(2-piperidylmethoxy)imidazo[1,2-a]pyridin-3-yl]benzamide]
0.01 to 10 nM	10 to 100 nM	0.01 to 10 nM	COc1cc(-c2cnc3cc(OC[C@@H]4COCCO4)ccn23)cc(OC(F)F)c1C(=O)NC1CC1 [compound 120, N-cyclopropyl-2-(difluoromethoxy)-4-[7-[[(2S)-1,4-dioxan-2-yl]methoxy]imidazo[1,2-a]pyridin-3-yl]-6-methoxy-benzamide]

SMILES	IC50 [1]	IC50 [2]	IC50 [3]
COc1cc(-c2cnc3cc(OCC(N)C(C)C)ccn23)cc(OC(F)F)c1C(=O)NC1CC1 (stereo not drawn) [compound 121, 4-[7-(2-amino-3-methyl-butoxy)imidazo[1,2-a]pyridin-3-yl]-N-cyclopropyl-2-(difluoromethoxy)-6-methoxy-benzamide]	0.01 to 10 nM	10 to 100 nM	0.01 to 10 nM
